Assay results taken from the supplement of paper PMC10307832.

Assays:
Experiment in all cases: relative viability (nuclei count vs DMSO), 5 days (fraction); higher = more cells survive
[1] = compound: Cn1cc(-c2cnn3c(N)c(Br)c([C@@H]4CCCNC4)nc23)cn1
Method in brief: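 In 1536-well plates, lung cancer cell lines rested overnight at 37 °C before five library-drug doses (not always all listed), √10 apart, were pinned onto vehicle-anchored plates. Nuclei were counted with MetaXpress from 4× Hoechst images taken after 5 days without medium change. Viability compares treated-well with vehicle-well nuclei as a median over plates, and plates needed control CV below 25% plus at least one doubling to pass.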

[2] = compound: Cn1cc(-c2cnn3c(N)c(Br)c([C@@H]4CCCNC4)nc23)cn1 + CCNC(=O)c1noc(-c2cc(C(C)C)c(O)cc2O)c1-c1ccc(CN2CCOCC2)cc1 [Luminespib] (partner 0.01 µM)
Method in brief: (§1)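 Lung cancer cell lines in 1536-well plates were dosed by pin tool the day after seeding, either with one drug alone or with a fixed anchor-drug dose plus five library-drug doses (not always all listed) in √10 steps. After 5 days, cells were fixed and their nuclei stained in one step (final 0.05% Triton X-100, 1% formaldehyde, 1 ug/ml Hoechst), then counted on 4× images. Relative viability is the nuclei count in treated wells divided by that in vehicle wells. Values are medians of duplicate plates.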

[3] = compound: Cn1cc(-c2cnn3c(N)c(Br)c([C@@H]4CCCNC4)nc23)cn1 + COc1cc2c(Oc3ccc(NC(=O)C4(C(=O)Nc5ccc(F)cc5)CC4)cc3F)ccnc2cc1OCCCN1CCOCC1 [Foretinib] (partner 0.25 µM)
Method in brief: as §1

[4] = compound: Cn1cc(-c2cnn3c(N)c(Br)c([C@@H]4CCCNC4)nc23)cn1 + COc1cccc2cc(-c3nc([C@H]4CC[C@H](C(=O)O)CC4)n4ncnc(N)c34)[nH]c12 [OSI-027] (partner 0.5 µM)
Method in brief: as §1

[5] = compound: Cn1cc(-c2cnn3c(N)c(Br)c([C@@H]4CCCNC4)nc23)cn1 + Cc1cc(Nc2cc(N3CCN(C)CC3)nc(Sc3ccc(NC(=O)C4CC4)cc3)n2)n[nH]1 [Tozasertib] (partner 0.1 µM)
Method in brief: as §1

[6] = compound: Cn1cc(-c2cnn3c(N)c(Br)c([C@@H]4CCCNC4)nc23)cn1 + Cc1nc(Nc2ncc(C(=O)Nc3c(C)cccc3Cl)s2)cc(N2CCN(CCO)CC2)n1 [Dasatinib] (partner 0.075 µM)
Method in brief: as §1

[7] = compound: Cn1cc(-c2cnn3c(N)c(Br)c([C@@H]4CCCNC4)nc23)cn1 + N=C(N)NC(=N)NCCc1ccccc1 [Phenformin] (partner 250 µM)
Method in brief: as §1

[8] = compound: Cn1cc(-c2cnn3c(N)c(Br)c([C@@H]4CCCNC4)nc23)cn1 + CC(=O)Nc1cccc(-n2c(=O)n(C3CC3)c(=O)c3c(Nc4ccc(I)cc4F)n(C)c(=O)c(C)c32)c1 [Trametinib] (partner 0.02 µM)
Method in brief: as §1

[9] = compound: Cn1cc(-c2cnn3c(N)c(Br)c([C@@H]4CCCNC4)nc23)cn1 + CC(=O)c1c(C)c2cnc(Nc3ccc(N4CCNCC4)cn3)nc2n(C2CCCC2)c1=O [Palbociclib] (partner 0.5 µM)
Method in brief: as §1

[10] = compound: Cn1cc(-c2cnn3c(N)c(Br)c([C@@H]4CCCNC4)nc23)cn1 + NC(=O)Nc1cc(-c2cccc(F)c2)sc1C(=O)N[C@H]1CCCNC1 [AZD7762] (partner 0.2 µM)
Method in brief: as §1

[11] = compound: Cn1cc(-c2cnn3c(N)c(Br)c([C@@H]4CCCNC4)nc23)cn1 + Nc1nc2[nH]cc(CCc3ccc(C(=O)N[C@@H](CCC(=O)O)C(=O)O)cc3)c2c(=O)[nH]1 [Pemetrexed] (partner 0.2 µM)
Method in brief: as §1

[12] = compound: Cn1cc(-c2cnn3c(N)c(Br)c([C@@H]4CCCNC4)nc23)cn1 + Nc1ncn([C@H]2C[C@H](O)[C@@H](CO)O2)c(=O)n1 [Decitabine] (partner 2 µM)
Method in brief: as §1

[13] = compound: Cn1cc(-c2cnn3c(N)c(Br)c([C@@H]4CCCNC4)nc23)cn1 + O=C(CCCCCCC(=O)Nc1ccccc1)NO [Vorinostat] (partner 1 µM)
Method in brief: as §1

[14] = compound: Cn1cc(-c2cnn3c(N)c(Br)c([C@@H]4CCCNC4)nc23)cn1 + O=C(c1cc(Cc2n[nH]c(=O)c3ccccc23)ccc1F)N1CCN(C(=O)C2CC2)CC1 [Olaparib] (partner 8 µM)
Method in brief: as §1

NCI-H1623 showed a relative viability ([1]; 0.05 µM) of 0.984, a relative viability ([1]; 0.1581 µM) of 0.9 and a relative viability ([1]; 0.5 µM) of 1.04. The relative viability ([1]; 1.581 µM) was 0.942, the relative viability ([1]; 5 µM) was 0.755 and the relative viability ([2]; first compound 0.05 µM) was 0.41. The relative viability ([2]; first compound 0.1581 µM) was 0.399, the relative viability ([2]; first compound 0.5 µM) was 0.538 and the relative viability ([2]; first compound 1.581 µM) was 0.851. It also gave a relative viability ([2]; first compound 5 µM) of 0.322, a relative viability ([3]; first compound 0.05 µM) of 0.811 and a relative viability ([3]; first compound 0.1581 µM) of 0.831. For the same cell line, the relative viability ([3]; first compound 0.5 µM) was 0.97, the relative viability ([3]; first compound 1.581 µM) was 0.844 and the relative viability ([3]; first compound 5 µM) was 0.606. For the same cell line, the relative viability ([4]; first compound 0.05 µM) was 0.426, the relative viability ([4]; first compound 0.1581 µM) was 0.456 and the relative viability ([4]; first compound 0.5 µM) was 0.407. It also gave a relative viability ([4]; first compound 1.581 µM) of 0.418, a relative viability ([4]; first compound 5 µM) of 0.382 and a relative viability ([5]; first compound 0.05 µM) of 0.425. It also gave a relative viability ([5]; first compound 0.1581 µM) of 0.421, a relative viability ([5]; first compound 0.5 µM) of 0.467 and a relative viability ([5]; first compound 1.581 µM) of 0.41. It also gave a relative viability ([5]; first compound 5 µM) of 0.38, a relative viability ([6]; first compound 0.05 µM) of 0.475 and a relative viability ([6]; first compound 0.1581 µM) of 0.474. The relative viability ([6]; first compound 0.5 µM) was 0.536, the relative viability ([6]; first compound 1.581 µM) was 0.477 and the relative viability ([6]; first compound 5 µM) was 0.399. The relative viability ([7]; first compound 0.05 µM) was 0.561, the relative viability ([7]; first compound 0.1581 µM) was 0.628 and the relative viability ([7]; first compound 0.5 µM) was 0.632. The relative viability ([7]; first compound 1.581 µM) was 0.567 and the relative viability ([7]; first compound 5 µM) was 0.432.

SW 900 was tested, and the relative viability ([1]; 0.05 µM) was 0.87, the relative viability ([1]; 0.1581 µM) was 0.881 and the relative viability ([1]; 0.5 µM) was 1. The relative viability ([1]; 1.581 µM) was 0.669, the relative viability ([1]; 5 µM) was 0.309 and the relative viability ([8]; first compound 0.05 µM) was 0.772. It also gave a relative viability ([8]; first compound 0.1581 µM) of 0.746, a relative viability ([8]; first compound 0.5 µM) of 0.946 and a relative viability ([8]; first compound 1.581 µM) of 0.753. It also gave a relative viability ([8]; first compound 5 µM) of 0.816, a relative viability ([9]; first compound 0.05 µM) of 0.53 and a relative viability ([9]; first compound 0.1581 µM) of 0.527. The relative viability ([9]; first compound 0.5 µM) was 0.535, the relative viability ([9]; first compound 1.581 µM) was 0.444 and the relative viability ([9]; first compound 5 µM) was 0.529. It also gave a relative viability ([2]; first compound 0.05 µM) of 0.184, a relative viability ([2]; first compound 0.1581 µM) of 0.176 and a relative viability ([2]; first compound 0.5 µM) of 0.188. It also gave a relative viability ([2]; first compound 1.581 µM) of 0.189, a relative viability ([2]; first compound 5 µM) of 0.165 and a relative viability ([3]; first compound 0.05 µM) of 0.828. For the same cell line, the relative viability ([3]; first compound 0.1581 µM) was 0.817, the relative viability ([3]; first compound 0.5 µM) was 0.78 and the relative viability ([3]; first compound 1.581 µM) was 0.768. For the same cell line, the relative viability ([3]; first compound 5 µM) was 0.39, the relative viability ([4]; first compound 0.05 µM) was 0.597 and the relative viability ([4]; first compound 0.1581 µM) was 0.612. It also gave a relative viability ([4]; first compound 0.5 µM) of 0.541, a relative viability ([4]; first compound 1.581 µM) of 0.453 and a relative viability ([4]; first compound 5 µM) of 0.26. The relative viability ([5]; first compound 0.05 µM) was 0.59, the relative viability ([5]; first compound 0.1581 µM) was 0.66 and the relative viability ([5]; first compound 0.5 µM) was 0.421. It also gave a relative viability ([5]; first compound 1.581 µM) of 0.458, a relative viability ([5]; first compound 5 µM) of 0.351 and a relative viability ([6]; first compound 0.05 µM) of 0.496. The relative viability ([6]; first compound 0.1581 µM) was 0.585, the relative viability ([6]; first compound 0.5 µM) was 0.671 and the relative viability ([6]; first compound 1.581 µM) was 0.448. The relative viability ([6]; first compound 5 µM) was 0.197, the relative viability ([7]; first compound 0.05 µM) was 0.656 and the relative viability ([7]; first compound 0.1581 µM) was 0.776. For the same cell line, the relative viability ([7]; first compound 0.5 µM) was 0.726, the relative viability ([7]; first compound 1.581 µM) was 0.428 and the relative viability ([7]; first compound 5 µM) was 0.228. For the same cell line, the relative viability ([10]; first compound 0.05 µM) was 0.607, the relative viability ([10]; first compound 0.1581 µM) was 0.618 and the relative viability ([10]; first compound 0.5 µM) was 0.572. The relative viability ([10]; first compound 1.581 µM) was 0.547, the relative viability ([10]; first compound 5 µM) was 0.465 and the relative viability ([11]; first compound 0.05 µM) was 0.449. The relative viability ([11]; first compound 0.1581 µM) was 0.468, the relative viability ([11]; first compound 0.5 µM) was 0.493 and the relative viability ([11]; first compound 1.581 µM) was 0.295. It also gave a relative viability ([11]; first compound 5 µM) of 0.305, a relative viability ([12]; first compound 0.05 µM) of 0.383 and a relative viability ([12]; first compound 0.1581 µM) of 0.409. It also gave a relative viability ([12]; first compound 0.5 µM) of 0.418, a relative viability ([12]; first compound 1.581 µM) of 0.42 and a relative viability ([12]; first compound 5 µM) of 0.595. For the same cell line, the relative viability ([13]; first compound 0.05 µM) was 0.47, the relative viability ([13]; first compound 0.1581 µM) was 0.362 and the relative viability ([13]; first compound 0.5 µM) was 0.648. The relative viability ([13]; first compound 1.581 µM) was 0.369, the relative viability ([13]; first compound 5 µM) was 0.181 and the relative viability ([14]; first compound 0.05 µM) was 0.897. It also gave a relative viability ([14]; first compound 0.1581 µM) of 0.97, a relative viability ([14]; first compound 0.5 µM) of 0.758 and a relative viability ([14]; first compound 1.581 µM) of 0.8. It also gave a relative viability ([14]; first compound 5 µM) of 0.616.
